Measurements taken from EP1071442B9, “METHODS AND COMPOSITIONS FOR PEPTIDE SYNTHESIS (T-20)” (priority 1998, dated 1999).
Residues, ends and D or L forms follow the SMILES beside them. *: point of attachment. NHTrityl = c1ccc(C(N*)(c2ccccc2)c2ccccc2)cc1; Fmoc = O=C(OCC1c2ccccc2-c2ccccc21)*; Boc = CC(C)(C)OC(=O)*; OtBu = CC(C)(C)O*; tBu = CC(C)(C)*

Tests used:
[1] = thermal stability of T-20 fragments (water-saturated or dry) at elevated temperatures, purity change by HPLC; assay type: physicochemical
Method: A series of experiments were conducted at to characterize the thermal stability of the intermediate T-20 fragments. T-20 fragments were saturated with water, filtered and then placed in enclosed containers and exposed to elevated temperatures. At several time points samples were collected and analyzed by HPLC methods to access the purity changes. Stability of the dry T-20 fragments was also characterized by thermogravimetric analysis (TGA).

Compound	stability in 1% TFA/DCM	degradation ([1]; after 24 hours at 80 °C)	stability to drying ([1]; drying at 40 °C)
CC(C)C[C@H](NC(=O)[C@H](CCC(=O)OC(C)(C)C)NC(=O)[C@H](CC(C)C)NC(=O)[C@H](CC(C)C)NC(=O)[C@H](CCC(=O)OC(C)(C)C)NC(=O)[C@H](CCC(=O)NC(c1ccccc1)(c1ccccc1)c1ccccc1)NC(=O)[C@H](CCC(=O)OC(C)(C)C)NC(=O)[C@H](CC(=O)NC(c1ccccc1)(c1ccccc1)c1ccccc1)NC(=O)[C@H](CCCCNC(=O)OC(C)(C)C)NC(=O)[C@H](CCC(=O)OC(C)(C)C)NC(=O)OCC1c2ccccc2-c2ccccc21)C(=O)O [F(17-26)-OH] (Fmoc-E(OtBu)K(Boc)D(NHTrityl)E(OtBu)E(NHTrityl)E(OtBu)LLE(OtBu)L-OH)	1 %/day	–	–
CC(C)C[C@H](NC(=O)[C@H](COC(C)(C)C)NC(=O)[C@H](C)NC(=O)[C@H](Cc1cn(C(=O)OC(C)(C)C)c2ccccc12)NC(=O)[C@H](CCCCNC(=O)OC(C)(C)C)NC(=O)[C@H](CC(=O)OC(C)(C)C)NC(=O)OCC1c2ccccc2-c2ccccc21)C(=O)N[C@@H](Cc1cn(C(=O)OC(C)(C)C)c2ccccc12)C(=O)N[C@@H](CC(=O)NC(c1ccccc1)(c1ccccc1)c1ccccc1)C(=O)N[C@@H](Cc1cn(C(=O)OC(C)(C)C)c2ccccc12)C(=O)N[C@@H](Cc1ccccc1)C(N)=O [F(27-36)-NH2] (Fmoc-D(OtBu)K(Boc)W(Boc)AS(tBu)LW(Boc)D(NHTrityl)W(Boc)F-NH2)	–	1.4%	stable
